{
  "source": "patent US20100173995A1",
  "about": "“Use of PPAR-alpha activator as inflammatory skin disease-treating agent and method for treating skin diseases using the same” (Neopharm Co., Ltd., priority 2009, published 2010)",
  "key": {"[1]": {"tested_on": "human skin", "test": "Human patch test", "assay_type": "in vivo", "conditions": "30 subjects", "description": "(§1) In order to evaluate the safety of the PPAR-α activator compound according to the present invention for application as a skin external preparation, an animal toxicity test and a human patch test were performed.\n(§2) To perform this evaluation, a single dose oral toxicity test using rats, a skin irritation test using rabbits, a skin sensitization test using guinea pigs and an ophthalmic mucous membrane irritation test using rabbits were performed as toxicity tests for PC-9S in animals. Those tests were performed based on “Toxicity Test Standards for Pharmaceutical Products” disclosed by the Korea Food & Drug Administration. Additionally, a human patch test for PC-9S was carried out on 30 subjects (average age: 24.1). […] However, when evaluating the overall results obtained from the other toxicity tests and the human patch test, it was considered that the pseudo-ceramide compound would not pose a safety problem."}, "[2]": {"tested_on": "guinea pigs", "test": "Skin sensitization test using guinea pigs", "assay_type": "in vivo, guinea pig", "description": "as §1, §2"}, "[3]": {"tested_on": "rats", "test": "Single dose oral toxicity test using rats", "assay_type": "in vivo, rat", "description": "as §1, §2"}, "[4]": {"tested_on": "rabbits", "test": "Ophthalmic mucous membrane irritation test using rabbits", "assay_type": "in vivo, rabbit", "description": "as §1, §2"}, "[5]": {"tested_on": "rabbits", "test": "Skin irritation test using rabbits", "assay_type": "in vivo, rabbit", "description": "as §1, §2"}},
  "data": [
    {"smiles": "CCCCCCCCCCCCCCCCCC(=O)C(CCCCCCCCCCCCCCCC)C(=O)NCCO", "note": "(stereo not drawn) [PC-9S]", "values": [
      {"measurement": "Human patch test result", "setting": "[1]; 1% PC-9S", "result": "No irritation"},
      {"measurement": "Human patch test result", "setting": "[1]; 10% PC-9S", "result": "No irritation"},
      {"measurement": "Skin sensitization test using guinea pigs result", "setting": "[2]", "result": "No irritation"},
      {"measurement": "Single dose oral toxicity test (toxicity test) result", "setting": "[3]", "result": "No irritation"},
      {"measurement": "Ophthalmic mucous membrane irritation test using rabbits result", "setting": "[4]", "result": "No irritation"},
      {"measurement": "Skin irritation test using rabbits result", "setting": "[5]", "result": "slight skin irritation"}
    ]}
  ]
}
